Legend:
[1] = target: T1, metazoan fatty acid synthase (mFAS), murine FAS (Mus musculus, UniProt P19096); test: NADPH consumption assay with purified mFAS; GC-MS of methyl-branched fatty acid products; format: biochemical
T1 construct: gene Fasn; full length mFAS

[2] = target: T1, metazoan fatty acid synthase (mFAS), murine FAS; test: NADPH consumption by purified mFAS, fluorescence; format: biochemical

T1 sequence (P19096 whole entry): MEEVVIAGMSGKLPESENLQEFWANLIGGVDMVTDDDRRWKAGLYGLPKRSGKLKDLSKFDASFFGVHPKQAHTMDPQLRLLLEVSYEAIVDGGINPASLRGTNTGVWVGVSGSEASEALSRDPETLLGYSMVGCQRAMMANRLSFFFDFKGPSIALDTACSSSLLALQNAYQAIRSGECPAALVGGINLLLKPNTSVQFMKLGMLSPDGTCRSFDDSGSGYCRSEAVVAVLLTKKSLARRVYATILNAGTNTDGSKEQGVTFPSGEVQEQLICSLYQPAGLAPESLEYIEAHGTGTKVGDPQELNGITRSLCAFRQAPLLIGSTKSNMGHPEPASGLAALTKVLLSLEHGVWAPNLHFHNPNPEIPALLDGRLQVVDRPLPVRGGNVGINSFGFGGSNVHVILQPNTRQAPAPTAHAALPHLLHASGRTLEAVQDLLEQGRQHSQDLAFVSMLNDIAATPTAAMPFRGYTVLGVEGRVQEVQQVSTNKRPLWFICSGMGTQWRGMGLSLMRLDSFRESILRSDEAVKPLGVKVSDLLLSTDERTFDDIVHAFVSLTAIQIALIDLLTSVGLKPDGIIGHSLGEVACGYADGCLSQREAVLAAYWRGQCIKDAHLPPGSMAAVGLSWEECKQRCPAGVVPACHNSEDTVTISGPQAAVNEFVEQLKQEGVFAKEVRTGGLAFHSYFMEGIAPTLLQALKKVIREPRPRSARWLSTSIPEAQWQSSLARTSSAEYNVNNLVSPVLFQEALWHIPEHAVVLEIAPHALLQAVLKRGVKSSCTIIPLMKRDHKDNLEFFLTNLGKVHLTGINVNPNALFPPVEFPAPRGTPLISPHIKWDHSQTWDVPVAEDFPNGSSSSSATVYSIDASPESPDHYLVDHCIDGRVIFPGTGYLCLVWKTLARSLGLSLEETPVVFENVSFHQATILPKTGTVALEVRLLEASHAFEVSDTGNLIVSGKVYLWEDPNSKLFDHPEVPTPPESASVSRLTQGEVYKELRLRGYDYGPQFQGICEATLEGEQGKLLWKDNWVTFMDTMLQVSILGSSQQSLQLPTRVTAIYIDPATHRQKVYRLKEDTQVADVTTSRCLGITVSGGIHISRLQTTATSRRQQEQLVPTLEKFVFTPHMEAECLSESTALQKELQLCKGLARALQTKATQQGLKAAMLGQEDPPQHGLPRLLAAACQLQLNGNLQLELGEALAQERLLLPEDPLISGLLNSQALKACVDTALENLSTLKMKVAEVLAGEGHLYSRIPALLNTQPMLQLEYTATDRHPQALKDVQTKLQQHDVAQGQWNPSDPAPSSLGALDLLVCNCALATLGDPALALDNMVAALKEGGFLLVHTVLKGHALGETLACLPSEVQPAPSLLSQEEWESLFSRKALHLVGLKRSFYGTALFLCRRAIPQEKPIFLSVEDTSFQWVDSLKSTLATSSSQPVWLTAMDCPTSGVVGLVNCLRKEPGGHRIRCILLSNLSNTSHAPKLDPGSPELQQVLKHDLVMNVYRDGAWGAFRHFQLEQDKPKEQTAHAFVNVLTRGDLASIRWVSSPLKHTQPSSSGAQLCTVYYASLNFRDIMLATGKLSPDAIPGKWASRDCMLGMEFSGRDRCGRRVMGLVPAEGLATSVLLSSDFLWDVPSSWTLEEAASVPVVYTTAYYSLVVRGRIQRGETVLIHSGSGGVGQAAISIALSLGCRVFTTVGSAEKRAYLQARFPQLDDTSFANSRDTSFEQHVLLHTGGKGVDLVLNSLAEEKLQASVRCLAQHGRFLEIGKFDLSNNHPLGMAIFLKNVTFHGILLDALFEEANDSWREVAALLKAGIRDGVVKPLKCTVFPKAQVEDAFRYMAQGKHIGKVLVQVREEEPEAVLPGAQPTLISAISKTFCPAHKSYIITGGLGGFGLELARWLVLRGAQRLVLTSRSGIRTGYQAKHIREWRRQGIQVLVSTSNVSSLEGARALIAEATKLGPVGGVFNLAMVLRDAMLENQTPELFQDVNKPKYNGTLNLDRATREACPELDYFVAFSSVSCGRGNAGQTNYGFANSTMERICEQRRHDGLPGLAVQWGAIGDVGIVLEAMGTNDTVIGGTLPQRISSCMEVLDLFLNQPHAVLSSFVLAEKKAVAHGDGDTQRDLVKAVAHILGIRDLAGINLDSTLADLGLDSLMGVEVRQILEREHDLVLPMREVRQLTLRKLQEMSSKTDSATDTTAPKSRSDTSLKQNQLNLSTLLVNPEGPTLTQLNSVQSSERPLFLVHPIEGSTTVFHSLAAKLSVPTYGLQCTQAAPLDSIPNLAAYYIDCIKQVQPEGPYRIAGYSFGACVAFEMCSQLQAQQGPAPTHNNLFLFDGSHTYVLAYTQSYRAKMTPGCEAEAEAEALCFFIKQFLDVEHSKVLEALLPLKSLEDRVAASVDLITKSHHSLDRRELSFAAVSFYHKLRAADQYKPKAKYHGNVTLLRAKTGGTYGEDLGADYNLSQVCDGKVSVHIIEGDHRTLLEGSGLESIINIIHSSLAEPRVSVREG

CC(C(=O)O)C(=O)SCCNC(=O)CCNC(=O)[C@H](O)C(C)(C)COP(=O)(O)OP(=O)(O)OC[C@H]1O[C@@H](n2cnc3c(N)ncnc32)[C@H](O)[C@@H]1OP(=O)(O)O (mixture of isomers) [methylmalonyl-CoA]
NADPH consumption assay with purified mFAS; GC-MS of methyl-branched fatty acid [1]: we observed increasing activity with increasing metmal‐CoA in the absence of starter substrates

NC(=O)C1=CN([C@@H]2O[C@H](COP(=O)(O)OP(=O)(O)OC[C@H]3O[C@@H](n4cnc5c(N)ncnc54)[C@H](OP(=O)(O)O)[C@@H]3O)[C@@H](O)[C@H]2O)C=CC1 [NADPH]
NADPH consumption by purified mFAS, fluorescence [2]: (NADPH) consumption of the integrated β‐ketoacyl reductase and enoyl reductase domains
